{"source": "patent EP4653431A1", "about": "“PYRAZOLE DERIVATIVE, AND PHARMACEUTICALLY ACCEPTABLE SALT, STEREOISOMER, PHARMACEUTICAL COMPOSITION AND USE THEREOF” (Starg (Wuhan) Pharmaceutical Technology Co., Ltd, priority 2023, dated 2024)", "key": {"[1]": {"system": "T-47D cells", "test": "In vitro T-47D cell viability assay (CellTiter-Glo)", "type": "cell-based", "settings": "Homo sapiens, T47D, 168 h, 7 days incubation", "procedure": "(§1) 1640 medium, fetal bovine serum, and penicillin/streptomycin antibiotics were purchased from Wisent. CellTiter-Glo (cell viability chemiluminescence assay reagent) was purchased from Promega. The T-47D cell line was purchased from Nanjing Cobioer Biosciences Co., Ltd. Envision multimode plate reader (PerkinElmer) was used.\nT-47D cells were seeded into a white 384-well plate, with 40 µL of cell suspension containing 300 T-47D cells per well. The cell plate was incubated overnight in a CO2 incubator.\n(§2) The test compound was serially diluted 5-fold using a multichannel pipette to the 8th concentration, i.e., from 2000 µM to […]. The experiment was set up with duplicate wells. 78 µL of culture medium was added to an intermediate plate, and 2 µL per well of the gradient-diluted compound was transferred to the corresponding position in the intermediate plate. After mixing, 10 µL per well of the mixture was transferred to the cell plate. The concentration range of the compound transferred to the cell plate was from 10 µM to 0.026 nM. The cell plate was incubated in a CO2 incubator for 7 days. Another cell plate was prepared, and the signal value was read on the day of compound addition to serve as the maximum value (Max in the equation below) for data analysis. 10 µL per well of CellTiter-Glo reagent was added to the cell plate, and the cell plate was incubated at room temperature for 10 minutes to stabilize the luminescence signal. The signal was read using the Envision multimode plate reader.\n10 µL per well of CellTiter-Glo reagent was added to the cell plate, and the cell plate was incubated at room temperature for 10 minutes to stabilize the luminescence signal. The signal was read using the Envision multimode plate reader.\n(§3) The raw data were converted to inhibition rates using the equation (Sample-Min)/(Max-Min)×100%. The IC50 value was obtained by fitting the data to a four-parameter curve (using log(inhibitor) vs. response -- Variable slope model in GraphPad Prism). Table 1 provides the inhibitory activity of the compounds of the present application against T-47D cell proliferation."}, "[2]": {"system": "OVCAR-3 cells", "test": "In vitro OVCAR-3 cell viability assay (CellTiter-Glo)", "type": "cell-based", "settings": "Homo sapiens, OVCAR-3, 168 h, 7 days incubation", "procedure": "as §1, with “OVCAR-3” for “T-47D”\nOVCAR-3 cells were seeded into a white 384-well plate, with 40 µL of cell suspension containing 300 OVCAR-3 cells per well. The cell plate was incubated overnight in a CO2 incubator.\nas §2, with “the” for “the Envision”\n10 µL per well of CellTiter-Glo reagent was added to the cell plate, and the cell plate was incubated at room temperature for 10 minutes to stabilize the luminescence signal. The signal was read using the multimode plate reader.\nas §3, with “OVCAR-3” for “T-47D”"}, "[3]": {"molecular_target": "T1, CDK2/cyclin E1 (Homo sapiens, UniProt P24941)", "T1 construct": "purchased SignalChem", "test": "In vitro CDK2/cyclinE enzyme activity assay (TR-FRET)", "type": "biochemical", "settings": "CDK2/cyclin E1, 1 mM ATP, 120 min at 25 °C", "procedure": "CDK2/cyclin E1 was purchased from SignalChem. Ulight-4E-BP1 peptide, Eu-anti-phospho-tyrosine antibody, and 1X detection buffer solution were purchased from PerkinElmer. High-purity adenosine triphosphate (ATP) was purchased from Promega. Ethylenediaminetetraacetic acid (EDTA) was purchased from Sigma. Nivo multimode plate reader (PerkinElmer) was used.\nPreparation of Kinase Buffer Solution: The kinase buffer solution consisted 50 mM HEPES, 1 mM EDTA, 10 mM MgCl2, and 0.01% Brij-35, with pH of 7.4. 2.38 g HEPES, 58 mg EDTA, 406 mg MgCl2, and 20 mg Brij-35 were added to 200 mL buffer, and the pH was adjusted to 7.4.\nThe stop solution was prepared by mixing 100 µL of 1 M EDTA stock solution with […] of 1X detection buffer solution and 1725 µL of distilled water.\nThe enzyme, Ulight-4E-BP1 peptide, ATP, and the inhibitor were diluted using the kinase buffer solution. The Eu-anti-phospho-tyrosine antibody was diluted to a concentration of 8 nM/L using the detection buffer solution. The test compound was serially diluted 5-fold using a multichannel pipette to the 8th concentration, i.e., from 4 µM to 0.0512 nM. The final concentration of DMSO was 4%, and the experiment was set up with duplicate wells. 2.5 µL of each gradient concentration of the inhibitor, 5 µL of CDK2/cyclin E1 enzyme (10 ng), and 2.5 µL of a mixture of substrate and ATP (4 mM ATP, 100 nM Ulight-4E-BP1 peptide) were added to a microplate, resulting in a final concentration gradient of the compound from 1 µM to 0.0128 nM, with final ATP and substrate concentrations of 1 mM and 25 nM, respectively. The reaction system was incubated at 25 °C for 120 minutes. After the reaction, 5 µL of the stop solution was added to each well, and further reacted at 25 °C for 5 minutes to terminate the reaction. Then 5 µL of Eu-anti-phospho-tyrosine antibody dilution was added to each well, and the mixture was reacted at 25 °C for 60 minutes. Data were collected using the PerkinElmer Nivo multimode plate reader in TR-FRET mode (excitation wavelength: 320 nm; emission wavelengths: 615 nm and 665 nm).\nThe raw data were converted to inhibition rates according to the equation (Sample-Min)/(Max-Min)×100%. The IC50 value was obtained by fitting the data to a four-parameter curve (using log(inhibitor) vs. response -- Variable slope model in GraphPad Prism)."}}, "note": "Structures can show the parent of a compound that is named as a salt.", "data": [{"smiles": "CONCc1nn2ccnc(Nc3cc([C@H]4CC[C@@H](OC(=O)NC(C)C)C4)[nH]n3)c2c1F", "note": "[Compound 5]", "values": [{"measurement": "IC50", "setting": "[1]", "result": 193, "unit": "nM"}, {"measurement": "IC50", "setting": "[2]", "result": 309, "unit": "nM"}, {"measurement": "IC50", "setting": "[3]", "result": 6.8, "unit": "nM"}]}, {"smiles": "CON(C)Cc1nn2ccnc(Nc3cc([C@H]4CC[C@@H](OC(=O)NC(C)C)C4)[nH]n3)c2c1F", "note": "[Compound 6]", "values": [{"measurement": "IC50", "setting": "[1]", "result": 384, "unit": "nM"}, {"measurement": "IC50", "setting": "[2]", "result": 104, "unit": "nM"}, {"measurement": "IC50", "setting": "[3]", "result": 7.4, "unit": "nM"}]}, {"smiles": "CON(C)Cc1nn2ccnc(Nc3cc([C@H]4CC[C@@H](OC(=O)NC(C)C)C4)[nH]n3)c2c1C", "note": "[Formate salt of compound 2]", "values": [{"measurement": "IC50", "setting": "[1]", "result": 465, "unit": "nM"}, {"measurement": "IC50", "setting": "[2]", "result": 124, "unit": "nM"}, {"measurement": "IC50", "setting": "[3]", "result": 4.1, "unit": "nM"}]}]}
